From paper PMC3912631, “Bench to Bed Evidences for Pharmacokinetic and Pharmacodynamic Interactions Involving Oseltamivir and Chinese Medicine” (Evidence-based Complementary and Alternative Medicine : eCAM, 2014) come the findings set out here.

Data set [1] in a line: Rat pharmacokinetics of OA and OC in plasma and urine after oral OA alone or with CMF1. The class given is in vivo, Sprague-Dawley rats. The note with it: in vivo, po, 30 mg/kg. The procedure:
The study was approved by the Animal Ethics Committee of The Chinese University of Hong Kong. Male Sprague-Dawley rats (230–250 g) were utilized and supplied by the Laboratory Animal Service Center at The Chinese University of Hong Kong. The rats were housed under standard conditions of temperature, humidity, and light and randomly divided into six groups with 10–12 rats in each group. […] The dose of 1.95 g/kg CMF1 is calculated based on the human dose recommended by the Chinese physicians and a doubled dose of CMF1 at […] is also used in the current study due to the potential large dosing range for Chinese medicine adopted in the practice. […]
For dosing, OA (4 mg/mL) was freshly prepared by dissolving it in water and orally given to rats by gavage, bid (twice daily) for 4 days (9:00am and 6:00pm for each day), and CMF1 was also freshly suspended in water and then orally given to rats 2 h later of OA dosing (11:00 am and 8:00 pm for each day).
For Groups of 1 to 3, a surgery for jugular vein cannulation was performed 1 h after CMF1 second dosing on day 4. A polyethylene catheter (0.50 mm ID, 1.00 mm OD, Portex Limited, Hythe, Kent, England) was cannulated into the right jugular vein under anesthesia. After surgery, the rat was placed in separated metabolic cage and allowed to recover and fasted overnight with free access to water. In the morning of day 5, blood samples (0.2 mL each) of the rats in the Groups 1–3 were collected via the catheter at 0, 15, 30, 60, 90, 120, 180, 240, 360, and 480 min after dosing of OA. After which, 0.2 mL of normal saline containing 20 units/mL of heparin was then injected into the catheter to flush the catheter. The collected blood samples were immediately placed in heparinized tubes containing dichlorvos (5 μL of 8 mg/mL dichlorvos in normal saline) for inhibition of carboxylesterase, followed by centrifugation to obtain the plasma and stored at −80°C. Urine samples were collected over 8 h postdose and combined with water used for rinsing the metabolic cage, further diluted to 200 mL, and then stored at −80°C until assay.
The rat/human plasma and urine samples were treated and analyzed by an LC/MS/MS system as previously described. Briefly, 200 μL plasma/urine samples was mixed with cephalexin hydrate (internal standard, IS) working solution (final 2 μg/mL) and acidified with 1 mL of 10% perchloric acid in water (if necessary, dilution with blank human urine was required for urine samples). After mixing and centrifugation, the supernatant was loaded in prewashed Oasis MCX cartridge (1 cc, 30 mg, Waters) and the cartridge was rinsed subsequently with 1% formic acid, water, and methanol followed by vacuum dried for 20 min. The analytes were then eluted with 1 mL of 1% ammonia in methanol. The eluting solvent was dried by a vacuum concentrator and the residue was reconstituted with 200 μL of 0.1% formic acid : methanol (1 : 1 v/v) prior to HPLC/MS/MS analysis using an ABI 2000 Q-Trap triple quadrupole mass spectrometer (Applied Biosystems) coupled with PE-200 series micropumps and autosampler (Perkin-Elmer). The chromatographic separation was achieved by using a Nova-Pak CN HP column (75 × 3.9 mm i.d., 4 μm particle size, Waters) and the HPLC solvent system consisted of methanol (A) and 0.1% formic acid in water (B), with 50% A (for plasma samples) or 60% A (for urine samples) at 1 mL/min. The temperatures of autosampler and the analytical column were set at 4°C and ambient, respectively, and the sample injection volume was 20 μL. Prior to the mass spectrometric system, 60% of the LC eluent was split off and only 40% of the eluent was introduced into the ESI source.
The plasma/urine OA and OC concentrations versus time profiles were analyzed using WinNonlin software standard edition version 2.1 (Pharsight Corporation). […] In human study, trough concentration (C trough) was defined as the minimum concentration obtained and was obtained at 12 h post-dose. […]

Data set [2] in a line: Human crossover pharmacokinetic interaction study of WM (Tamiflu) alone or with CMF1. The class given is in vivo, human (Chinese male healthy volunteers). The note with it: for AUC(0-t): AUC0–12 h; for Cmax: C max. The protocol:
Normal healthy Chinese male subjects aged 20–45 years were recruited in this study. […] The study was conducted using a single-center, randomized, open-labeled, multiple dose (5 days), two-treatment, two-period, two-sequence crossover design. […] Each subject underwent two treatment sessions (periods I and II), and each session consists of 5-day treatment (twice daily for day 1 to day 4, morning dose for day 5). The two treatment sessions were separated by a washout period of 2 weeks. 250 mL water was used for WM (Tamiflu capsule, 75 mg per dose) administration. […] Drinking water was not allowed from 1 h predose to 1 h postdose except that needed for drug dosing. […] All blood and urine collection was taken on day 5 of each treatment session. […] Blood samples were collected from a catheter, which was placed in the forearm vein before dosing. At the specified time, 5 mL of blood was drawn (except for 0 time and at 2 h which was 10 mL each for additional antiviral activity determination) and stored in vacuette lithium heparin tubes (Greiner Bio-One). […] Plasma samples were collected after centrifugation and then stored at −80°C until assay. Urine was also collected (and the volume was recorded) at pre-dose, 0–4, 4–8, and 8–12 h intervals. […] After mixing and centrifugation, the supernatant was loaded in prewashed Oasis MCX cartridge (1 cc, 30 mg, Waters) and the cartridge was rinsed subsequently with 1% formic acid, water, and methanol followed by vacuum dried for 20 min. The analytes were then eluted with 1 mL of 1% ammonia in methanol. The eluting solvent was dried by a vacuum concentrator and the residue was reconstituted with 200 μL of 0.1% formic acid : methanol (1 : 1 v/v) prior to HPLC/MS/MS analysis using an ABI 2000 Q-Trap triple quadrupole mass spectrometer (Applied Biosystems) coupled with PE-200 series micropumps and autosampler (Perkin-Elmer). […] In human study, trough concentration (C trough) was defined as the minimum concentration obtained and was obtained at 12 h post-dose. […] In human studies, the comparison of WM + CMF1 to WM alone treatments was evaluated using a 90% confidence intervals (90% CI) approach (USFDA guideline, Drug Interactions Studies, September 2006). […] The statistical model included terms describing the effects attributable to sequence, subject (nested in sequence), period, and treatment (formulation). […] Difference in the median T max between both treatments was evaluated using Wilcoxon signed-rank test. For comparison of the human antiviral activities, one-way analysis of variance in conjunction with post hoc Turkey's range test was performed.

The mark [3] stands for this setting: male, human, in vivo, geometric mean.

The term Cmax denotes the peak of the concentration-time curve. As usually defined, the CL/F is the apparent clearance, not corrected for the fraction that reaches the circulation. As usually defined, the Tmax is the time at which the peak concentration occurs. Broadly, the half-life is how long it takes for the measured level to halve. A lower half-life goes with fast loss. As usually defined, the AUC(0-t) is exposure summed from dosing to a finite time, without extrapolation to infinity. `CCOC(=O)C1=C[C@@H](OC(CC)CC)[C@H](NC(C)=O)[C@@H](N)C1` [OA, Oseltamivir]: in data set [1], the “AUC0–8 h” value was determined as 199.85 ± 56.88 μg∗min/mL; the “AUC0–inf” value turned out to be 209.14 ± 60.23 μg∗min/mL; the “V d, λz/F” value is 23.39 ± 8.17 (L/k)g. For the same compound, the concentration in data set [1] (male, Sprague-Dawley, C max) peaked (Cmax) at 1160 ± 300 ng/mL. This compound yielded a CL renal in data set [1] (male, Sprague-Dawley, CL renal) of 6.1 ± 1.32 mL/min. The CL/F in data set [1] (male, Sprague-Dawley, CL/F) stood at 158 ± 59.6 mL/min/kg. Moreover, the Tmax in data set [1] (male, Sprague-Dawley, T max) was 0.55 h. In addition, the half-life in data set [1] (male, Sprague-Dawley, t 1/2, λz) worked out at 1.72 ± 0.146 h. Further, the C max in data set [2] (human, day 5, WM + CMF1, n = 14, arithmetic mean ± SD) is listed as 51.3 ± 17.4 ng/mL. Besides, in data set [2] (in vivo), the tolerability entry is listed as “well tolerated”. For the same compound, in data set [2] (male, human, in vivo), the “12 h Cum. amt. in urine” value came out at 2883 ± 985 µg; the “12 h Cum. amt. in urine, geometric mean” value is 2745.53 µg; the “C max for WM + CMF1 treatment lower than that from WM alone” value amounted to 21.81%; the “C max when OA was co-administered with CMF1, relative to WM alone” value is listed as ~ 78%. In addition, in data set [2] (male, human, in vivo), the “time to reach peak maximum in plasma” value fell in the range of 0.5 to 1 h, the AUC(0-t) turned out to be 134 ± 41.1 ng·h/mL and the peak level (Cmax) was 67.9 ± 27.1 ng/mL. In data set [2] (setting [3]), this compound showed an AUC(0-t) of 130 ng·h/mL and a maximum concentration (Cmax) of 62.4 ng/mL. In data set [2] (male, human, in vivo, Renal clearance), this compound showed a CL renal of 368 mL/min. The compound also gave a half-life in data set [2] (male, human, in vivo, T 1/2 (terminal half-life)) of 1.98 ± 0.4 h. Besides, the Tmax in data set [2] (male, human, in vivo, T max) amounted to 0.61 ± 0.21 h. Besides, the CL renal in data set [2] (male, human, in vivo, renal clearance) is around 367 mL/min.
